Laboratory results published in patent US20260217767A1, “NOVEL A4B7 THIOETHER PEPTIDE DIMER ANTAGONISTS” (Protagonist Therapeutics, Inc., priority 2014, published 2026).
Where two headings read alike, the source gives them in different places. *1 amine or outer side, *2 acyl side, *3 side chain or, on linkers, in order; H or OH if unused. Where a SMILES comes first, the peptide text is derived from it. Bridges are numbered along the chain shown (N, C = ends). Roman numbers before positions name the chains, in order. [ ]: non-standard residue; d: D form. Phe(4-CF3) = N[C@@H](Cc1ccc(C(F)(F)F)cc1)C(=O)O; Phe(4-tBu) = CC(C)(C)c1ccc(C[C@H](N)C(=O)O)cc1; Bip = N[C@@H](Cc1ccc(-c2ccccc2)cc1)C(=O)O; Diglycolyl = O=C(COCC(=O)[*:2])[*:1]; NMeR = CN[C@@H](CCCNC(=N)N)C(=O)O; β3hE = N[C@@H](CCC(=O)O)CC(=O)O; X1 = O=C(c1ccccc1C[*:2])[*:1]; Pen = CC(C)(S)[C@H](N)C(=O)O; hCys = N[C@@H](CCS)C(=O)O

Legend:
[1] = Simulated Intestinal Fluid (SIF) Stability Assay; format: in vitro ADME; conditions: pig, 37° C.; for half-life: porcine pancreatin; for half-life at 22 μM: simulated intestinal fluid (SIF) with 1% porcine pancreatin, pH 6.5, porcine pancreatin
How it was run: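 Peptide at 22 μM final was incubated at 37° C in blank FaSSIF pH 6.5 with 1% porcine pancreatin. Timed samples were quenched in acetonitrile/methanol/formic acid with internal standard and analysed by LC-MS/MS. Half-lives came from first-order exponential fits of percent remaining.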

α4β1 = molecular target: T1, α4β1 (Homo sapiens, UniProt P05556+P13612); assay: α4β1-VCAM Competition ELISA; format: binding; conditions: read-out: ELISA A4B1
T1 construct: purchased R&D Systems 5668-A4
Protocol: α4β1-VCAM Competition ELISA
A Nunc MaxiSorp plate was coated with rh VCAM-1/CD106 Fc chimera (R&D #862-VC) at 400 ng/well in 50 ul per well in 1×PBS and incubated overnight at 4° C. The solution was removed by shaking and then blocked with 250 ul of 1% BSA in 1×PBS per well. The wells were then incubated at room temperature for 1 hr with shaking. Each well was then washed once with wash buffer (50 mM Tris-HCl pH7.6, 100 mM NaCL, 1 mM MnCl2 or MgCl2, 0.05% Tween-20). 25 ul of serial dilutions of peptides starting at 200 μM in assay buffer (Assay buffer: 50 mM Tris-HCl pH7.6, 100 mM NaCl, 1 mM MnCl2 or MgCl2, 0.05% Tween-20) was added to each well. Additionally, 25 μl of α4β1 (R&D Systems #5668-A4) was added to each well at a fixed concentration of 120 nM. The final peptide and α4β1 concentrations were 100 μM and 60 nM, respectively. The plates were then incubated at 37° C. for 2 hr. The solution was then removed by shaking and each well was washed three times with wash buffer. 50 ul of 9F10 antibody at 4 ug/ml (purified mouse anti-human CD49d, BD Bioscience Cat #555502) was then added to each well, and the plate was incubated at room temperature for Ihr with shaking. The solution was again removed by shaking, and each well was washed three times with wash buffer. 50 μl of peroxidase-conjugated AffiniPure Goat anti-mouse IgG (Jackson immune research cat #115-035-003) diluted in 1:5000 in assay buffer was added to each well. The plate was incubated at room temperature for 30 min with shaking. Each well was then washed 3 times with wash buffer. 100 ul of TMB was then added to each well and closely observe during developing time. The reaction was stepped with 2N H2SO4 and absorbance was read at 450 nm.

[2] = thioether peptide dimers, Table 7
[3] = thioether monomer peptides, Table 6

T1 sequence (P13612 34-977 limits assumed): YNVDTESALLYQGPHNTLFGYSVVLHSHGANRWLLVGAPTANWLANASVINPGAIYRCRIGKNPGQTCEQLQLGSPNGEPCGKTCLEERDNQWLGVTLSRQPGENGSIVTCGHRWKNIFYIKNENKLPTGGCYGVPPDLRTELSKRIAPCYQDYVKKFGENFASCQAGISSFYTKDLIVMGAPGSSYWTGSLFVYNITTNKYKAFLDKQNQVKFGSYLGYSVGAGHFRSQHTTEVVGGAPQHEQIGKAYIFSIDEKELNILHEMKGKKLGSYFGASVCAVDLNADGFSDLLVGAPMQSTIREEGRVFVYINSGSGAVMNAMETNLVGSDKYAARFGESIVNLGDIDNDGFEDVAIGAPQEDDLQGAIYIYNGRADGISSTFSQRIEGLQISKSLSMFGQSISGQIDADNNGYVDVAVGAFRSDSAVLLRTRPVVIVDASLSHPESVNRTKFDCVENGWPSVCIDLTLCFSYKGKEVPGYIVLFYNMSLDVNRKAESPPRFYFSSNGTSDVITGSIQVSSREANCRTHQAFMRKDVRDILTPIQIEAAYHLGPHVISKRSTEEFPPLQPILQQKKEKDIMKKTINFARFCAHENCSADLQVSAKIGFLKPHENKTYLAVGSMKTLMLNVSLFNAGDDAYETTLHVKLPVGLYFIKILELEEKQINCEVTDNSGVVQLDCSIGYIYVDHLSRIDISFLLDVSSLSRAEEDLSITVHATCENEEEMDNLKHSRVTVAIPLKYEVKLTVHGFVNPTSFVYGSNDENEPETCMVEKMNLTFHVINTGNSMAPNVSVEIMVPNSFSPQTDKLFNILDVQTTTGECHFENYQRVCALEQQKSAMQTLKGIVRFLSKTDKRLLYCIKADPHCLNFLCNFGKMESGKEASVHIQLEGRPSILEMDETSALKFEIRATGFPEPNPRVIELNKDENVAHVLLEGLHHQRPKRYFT
T1 sequence (P05556 21-728 limits assumed): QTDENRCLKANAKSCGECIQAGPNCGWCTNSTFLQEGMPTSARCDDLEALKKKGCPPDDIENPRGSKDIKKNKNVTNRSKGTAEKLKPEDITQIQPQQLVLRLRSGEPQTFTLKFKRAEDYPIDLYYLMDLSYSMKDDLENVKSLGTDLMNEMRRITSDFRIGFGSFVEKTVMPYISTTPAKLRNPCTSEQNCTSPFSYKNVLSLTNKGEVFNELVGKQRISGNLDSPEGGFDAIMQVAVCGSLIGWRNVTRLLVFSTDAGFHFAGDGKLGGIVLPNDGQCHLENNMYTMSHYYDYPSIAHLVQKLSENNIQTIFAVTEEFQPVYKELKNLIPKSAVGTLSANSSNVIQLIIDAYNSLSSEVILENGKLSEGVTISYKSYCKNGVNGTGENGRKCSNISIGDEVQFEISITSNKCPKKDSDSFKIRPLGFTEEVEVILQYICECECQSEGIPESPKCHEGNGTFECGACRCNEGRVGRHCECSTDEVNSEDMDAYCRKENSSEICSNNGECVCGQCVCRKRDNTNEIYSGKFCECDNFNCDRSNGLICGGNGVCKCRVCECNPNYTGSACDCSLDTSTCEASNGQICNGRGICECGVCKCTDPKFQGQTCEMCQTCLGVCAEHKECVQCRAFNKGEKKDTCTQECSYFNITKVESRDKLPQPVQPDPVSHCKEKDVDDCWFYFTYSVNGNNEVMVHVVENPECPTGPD

SMILES	IC50 (α4β1; [2])	half-life at 22 μM ([1]; monomers, Table 6)	further results
CC(C)C[C@@H]1NC(=O)[C@H]([C@@H](C)O)NC(=O)[C@H](CC(=O)O)NC(=O)[C@H](CO)NC(=O)[C@H](CCCNC(=N)N)N(C)C(=O)c2ccccc2CSC(C)(C)[C@@H](C(=O)N[C@@H](Cc2c[nH]c3ccccc23)C(=O)N[C@H](CCC(=O)O)C(=O)N[C@@H](CN)C(N)=O)NC1=O [compound 94] (HELM PEPTIDE1{[meR].S.D.T.L.[Pen].W.[dE].[NC[C@H](N[*:1])C(=O)[*:2]].[am]}|CHEM1{[O=C(c1ccccc1C[*:2])[*:1]]}$PEPTIDE1,CHEM1,1:R1-1:R1|PEPTIDE1,CHEM1,6:R3-1:R2$$$V2.0)	–	–	half-life ([1]; monomers, Table 6): > 180 min
CC(C)C[C@@H]1NC(=O)[C@H]([C@@H](C)O)NC(=O)[C@H](CC(=O)O)NC(=O)[C@H](CO)NC(=O)[C@H](CCCNC(=N)N)N(C)C(=O)C(C)SC[C@@H](C(=O)N[C@@H](Cc2c[nH]c3ccccc23)C(=O)N[C@H](CCCCN)C(N)=O)NC1=O (single isomer, unassigned) [compound 144]	> 1000 nM	–	half-life at 22 μM ([1]; dimers, Table 7): < 20 min
CC(C)C[C@@H]1NC(=O)[C@H]([C@@H](C)O)NC(=O)[C@H](CC(=O)O)NC(=O)[C@H](CO)NC(=O)[C@H](CCCNC(=N)N)N(C)C(=O)CSC[C@@H](C(=O)N[C@@H](Cc2c[nH]c3ccccc23)C(=O)N[C@H](CCCCNC(=O)COCC(=O)NCCCC[C@@H](NC(=O)[C@H](Cc2c[nH]c3ccccc23)NC(=O)[C@@H]2CSCC(=O)N(C)[C@@H](CCCNC(=N)N)C(=O)N[C@@H](CO)C(=O)N[C@@H](CC(=O)O)C(=O)N[C@@H]([C@@H](C)O)C(=O)N[C@@H](CC(C)C)C(=O)N2)C(N)=O)C(N)=O)NC1=O [compound 143]	> 1000 nM	–	–
CC(C)C[C@@H]1NC(=O)[C@H]([C@@H](C)O)NC(=O)[C@H](CC(=O)O)NC(=O)[C@H](CO)NC(=O)[C@H](CCCNC(=N)N)N(C)C(=O)c2ccccc2CSC[C@@H](C(=O)N[C@@H](Cc2c[nH]c3ccccc23)C(=O)N[C@@H](CCC(=O)O)C(=O)N[C@H](CCCCN)C(N)=O)NC1=O [compound 55] (HELM PEPTIDE1{[meR].S.D.T.L.C.W.E.[dK].[am]}|CHEM1{[O=C(c1ccccc1C[*:2])[*:1]]}$PEPTIDE1,CHEM1,1:R1-1:R1|PEPTIDE1,CHEM1,6:R3-1:R2$$$V2.0)	–	25 min	IC50 (α4β1; [3]): 100 to 1000 nM
CC(=O)NCCCC[C@@H](NC(=O)[C@@H](CCC(=O)O)NC(=O)[C@H](Cc1c[nH]c2ccccc12)NC(=O)[C@H]1NC(=O)[C@H](CC(C)C)NC(=O)[C@H]([C@@H](C)O)NC(=O)[C@H](CC(=O)O)NC(=O)[C@H](CO)NC(=O)[C@H](CCCNC(=N)N)N(C)C(=O)c2ccccc2CSC1(C)C)C(N)=O [compound 81] (HELM PEPTIDE1{[meR].S.D.T.L.[Pen].W.[dE].[dK].[am]}|PEPTIDE2{[ac]}|CHEM1{[O=C(c1ccccc1C[*:2])[*:1]]}$PEPTIDE1,PEPTIDE2,9:R3-1:R2|PEPTIDE1,CHEM1,1:R1-1:R1|PEPTIDE1,CHEM1,6:R3-1:R2$$$V2.0)	–	–	IC50 (α4β1; [3]): 100 to 1000 nM
CC(C)C[C@@H]1NC(=O)[C@H]([C@@H](C)O)NC(=O)[C@H](CC(=O)O)NC(=O)[C@H](CO)NC(=O)[C@H](CCCNC(=N)N)N(C)C(=O)c2ccccc2CSC(C)(C)[C@@H](C(=O)N[C@@H](Cc2c[nH]c3ccccc23)C(=O)N[C@H](CCC(=O)O)C(=O)N[C@@H](CCN)C(N)=O)NC1=O [compound 95] (HELM PEPTIDE1{[meR].S.D.T.L.[Pen].W.[dE].[Dab].[am]}|CHEM1{[O=C(c1ccccc1C[*:2])[*:1]]}$PEPTIDE1,CHEM1,1:R1-1:R1|PEPTIDE1,CHEM1,6:R3-1:R2$$$V2.0)	–	–	half-life ([1]; monomers, Table 6): > 180 min
CC(C)C[C@@H]1NC(=O)[C@H]([C@@H](C)O)NC(=O)[C@H](CC(=O)O)NC(=O)[C@H](CO)NC(=O)[C@H](CCCNC(=N)N)N(C)C(=O)c2ccccc2CSC(C)(C)[C@@H](C(=O)N[C@@H](Cc2ccc(-c3ccccc3)cc2)C(=O)N[C@@H](CCC(=O)O)CC(N)=O)NC1=O [compound 133] ([NMeR]SDTL[Pen][Bip][β3hE]-NH2; linker N-6 via X1)	–	> 180 min	–
CC(C)C[C@@H]1NC(=O)[C@H]([C@@H](C)O)NC(=O)[C@H](CC(=O)O)NC(=O)[C@H](CO)NC(=O)[C@H](CCCNC(=N)N)N(C)C(=O)c2ccccc2CSC(C)(C)[C@@H](C(=O)N[C@@H](Cc2ccc(C(C)(C)C)cc2)C(=O)N[C@@H](CCC(=O)O)CC(N)=O)NC1=O [compound 134] ([NMeR]SDTL[Pen][Phe(4-tBu)][β3hE]-NH2; linker N-6 via X1)	–	> 180 min	–
CC(C)C[C@@H]1NC(=O)[C@H]([C@@H](C)O)NC(=O)[C@H](CC(=O)O)NC(=O)[C@H](CO)NC(=O)[C@H](CCCNC(=N)N)N(C)C(=O)c2ccccc2CSC(C)(C)[C@@H](C(=O)N[C@@H](Cc2ccc3ccccc3c2)C(=O)N[C@H](CCC(=O)O)C(N)=O)NC1=O [compound 114] (HELM PEPTIDE1{[meR].S.D.T.L.[Pen].[O=C([C@H](Cc1ccc2ccccc2c1)N[*:1])[*:2]].[dE].[am]}|CHEM1{[O=C(c1ccccc1C[*:2])[*:1]]}$PEPTIDE1,CHEM1,1:R1-1:R1|PEPTIDE1,CHEM1,6:R3-1:R2$$$V2.0)	–	> 180 min	IC50 (α4β1; [3]): 25 to 100 nM
CC(C)C[C@@H]1NC(=O)[C@H]([C@@H](C)O)NC(=O)[C@H](CC(=O)O)NC(=O)[C@H](CO)NC(=O)[C@H](CCCNC(=N)N)N(C)C(=O)c2ccccc2CSC(C)(C)[C@@H](C(=O)N[C@@H](Cc2cccc3ccccc23)C(=O)N[C@H](CCC(=O)O)C(=O)N(C)[C@@H](CCCCN)C(N)=O)NC1=O [compound 69] (HELM PEPTIDE1{[meR].S.D.T.L.[Pen].[O=C([C@H](Cc1cccc2ccccc12)N[*:1])[*:2]].[dE].[meK].[am]}|CHEM1{[O=C(c1ccccc1C[*:2])[*:1]]}$PEPTIDE1,CHEM1,1:R1-1:R1|PEPTIDE1,CHEM1,6:R3-1:R2$$$V2.0)	–	> 180 min	–
CC(C)C[C@@H]1NC(=O)[C@H]([C@@H](C)O)NC(=O)[C@H](CC(=O)O)NC(=O)[C@H](CO)NC(=O)[C@H](CCCNC(=N)N)N(C)C(=O)c2ccccc2CSCC[C@@H](C(=O)N[C@@H](Cc2c[nH]c3ccccc23)C(=O)N[C@@H](CCC(=O)O)C(=O)N[C@H](CCCCNC(=O)COCC(=O)NCCCC[C@@H](NC(=O)[C@H](CCC(=O)O)NC(=O)[C@H](Cc2c[nH]c3ccccc23)NC(=O)[C@@H]2CCSCc3ccccc3C(=O)N(C)[C@@H](CCCNC(=N)N)C(=O)N[C@@H](CO)C(=O)N[C@@H](CC(=O)O)C(=O)N[C@@H]([C@@H](C)O)C(=O)N[C@@H](CC(C)C)C(=O)N2)C(N)=O)C(N)=O)NC1=O [compound 157] (I: [NMeR]SDTL[hCys]WE[dK]-NH2 / II: [NMeR]SDTL[hCys]WE[dK]-NH2; linker I:9-II:9 via Diglycolyl; linker I:N-I:6, II:N-II:6 via X1)	100 to 1000 nM	–	half-life ([1]; dimers, Table 7): < 20 min
CC(C)C[C@@H]1NC(=O)[C@H]([C@@H](C)O)NC(=O)[C@H](CC(=O)O)NC(=O)[C@H](CO)NC(=O)[C@H](CCCNC(=N)N)N(C)C(=O)c2ccccc2CSC(C)(C)[C@@H](C(=O)N[C@@H](Cc2ccc(C(F)(F)F)cc2)C(=O)N[C@@H](CCC(=O)O)C(=O)N[C@H](CCCCNC(=O)COCC(=O)NCCCC[C@@H](NC(=O)[C@H](CCC(=O)O)NC(=O)[C@H](Cc2ccc(C(F)(F)F)cc2)NC(=O)[C@H]2NC(=O)[C@H](CC(C)C)NC(=O)[C@H]([C@@H](C)O)NC(=O)[C@H](CC(=O)O)NC(=O)[C@H](CO)NC(=O)[C@H](CCCNC(=N)N)N(C)C(=O)c3ccccc3CSC2(C)C)C(N)=O)C(N)=O)NC1=O [compound 166] (I: [NMeR]SDTL[Pen][Phe(4-CF3)]E[dK]-NH2 / II: [NMeR]SDTL[Pen][Phe(4-CF3)]E[dK]-NH2; linker I:9-II:9 via Diglycolyl; linker I:N-I:6, II:N-II:6 via X1)	25 to 100 nM	–	half-life ([1]; dimers, Table 7): 30 min
CC(C)C[C@@H]1NC(=O)[C@H]([C@@H](C)O)NC(=O)[C@H](CC(=O)O)NC(=O)[C@H](CO)NC(=O)[C@H](CCCNC(=N)N)N(C)C(=O)c2ccccc2CSC(C)(C)[C@@H](C(=O)N[C@@H](Cc2c[nH]c3ccccc23)C(=O)N[C@@H](CCC(=O)O)C(N)=O)NC1=O [compound 96] (HELM PEPTIDE1{[meR].S.D.T.L.[Pen].W.E.[am]}|CHEM1{[O=C(c1ccccc1C[*:2])[*:1]]}$PEPTIDE1,CHEM1,1:R1-1:R1|PEPTIDE1,CHEM1,6:R3-1:R2$$$V2.0)	–	26 min	–
